The record followed here is patent US4347252A, “Rodenticidal 1-(3,5-bistrifluoromethylphenyl)-3-(4-t-butylpiperidino)prop-1-yne” (priority 1980, dated 1982).

SMILES strings stand for the structures.

For data set [1], the system named is rodents.
Data set [2] concerns mice (laboratory strain). Nature of the data set: Acute Oral Toxicity in Mice (Laboratory Strain). The class given is in vivo. On the procedure: Acute Oral Toxicity in Mice (Laboratory Strain)
Groups of mice were dosed orally with graded doses of the test compound in aqueous suspension and observed until there had been no deaths for at least three days. The acute oral LD50, that is to say the dose in mg/kg animal body weight necessary to kill 50% of the mice, was determined from the numbers of animals for each dose which died during the observation period by reference to published tables.

On to `CC(C)(C)C1CCN(CC#Cc2cc(C(F)(F)F)cc(C(F)(F)F)c2)CC1` [Compound of formula I as free base, 1-(3,5-bistrifluoromethylphenyl)-3-(4-tert-butylpiperidino)prop-1-yne], for which, in data set [1] (in vivo), the “major symptom of toxicity” value is on record as “sedation is the major symptom of toxicity” and the “manner of death of treated animals” value is recorded as “die quietly, without exhibiting signs of distress”. Moreover, in data set [1] (vs anticoagulant rodenticides), the “period of delay between ingestion and death compared with anticoagulant rodenticides” value was “shorter”. In addition, the “toxicity to strains of rodents resistant to anticoagulant rodenticides” value in data set [1] (vs strains which do not possess this resistance) is reported as “equally as toxic”. In addition, in data set [2] (aqueous suspension), the “LD50 (acute oral)” value is recorded as 68 mg/kg animal body weight. In addition, the “Observations: signs of poisoning” value in data set [2] (prior to death / after dosing) was “Some signs of poisoning”.
